According to paper PMC9688808, “Discovery of Novel Lin28 Inhibitors to Suppress Cancer Cell Stemness” (Cancers, 2022):

Columns and labels:
Lin28B ZKD = biological target: T1, Lin28B ZKD (Homo sapiens, UniProt Q6ZN17); assay: EMSA, Lin28B ZKD–Let-7 complex; assay type: binding; details: compounds 0–1200 uM
T1 construct: His-tagged human Lin28B ZKD (aa110-174); His-tag; made in house; host or cells: Escherichia coli BL21
T1 sequence (Q6ZN17 110-174): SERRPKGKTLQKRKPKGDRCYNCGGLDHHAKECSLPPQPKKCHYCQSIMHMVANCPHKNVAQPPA
Protocol: (§1) EMSA followed the standard protocols we published with minor modifications. An IRDye800CWN-labeled Let-7 RNA probe was purchased from IDT (Coralville, IA, USA). Lin28B or Lin28A proteins were incubated with […] of probe in a standard 20 uL EMSA reaction in a reaction buffer containing 20 mM HEPES-NaOH, pH 7.4, 2 mM DTT, 3 mM MgCl2, 0.05% NP-40, protease inhibitors, and 0.1 ug poly[dI:dC]. After incubation for 30 min at 37 °C, reactions were loaded onto 4% non-denatured polyacrylamide gel in 0.5× TBE buffer. The RNA oligo bands were visualized by using the Li-Cor Odyssey 9120 Infrared Imaging System.
Figure 3 Lin28 inhibitors block the interaction between Lin28B ZKD and Let-7. (A) EMSA used 10 nM of IR800DyeCWN-labeled let-7 probe (lane 1), 0.5 uM Lin28B ZKD protein with 10 nM of labeled Let-7 probe (lane 2), or Lin28B ZKD, labeled Let-7 probe and 100× non-labelled competitor probe (lane 3). EMSA used Lin28B ZKD, labeled Let-7 probe, and 100–1200 uM of indicated compounds (lanes 4–10). (B) FP assays were performed by using 10 uM of Lin28B ZKD and 1 nM of FAM-labeled Let-7 probe and 1 nM–1000 uM of compounds. (C) Bio-layer interferometry (BLI) assays were performed using 0–25 uM of Ln115 with Avi-tagged Lin28B ZKD protein. (D) Chemical structures of the three lead compounds were shown.

Lin28A ZKD = biological target: T2, Lin28A ZKD (Homo sapiens, UniProt Q9H9Z2); assay: EMSA, Lin28A ZKD–Let-7 complex; assay type: binding; details: compounds 100–1200 uM
T2 construct: Lin28A ZKD (aa121-187); His-tag; made in house; host or cells: Escherichia coli BL21
T2 sequence (Q9H9Z2 121-187): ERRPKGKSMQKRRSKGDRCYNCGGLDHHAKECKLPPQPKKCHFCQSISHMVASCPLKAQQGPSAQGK
Protocol: as §1
(§2) Figure 5 Lin28 inhibitors block the Lin28A isoform. (A) EMSA used 10 nM of IR800DyeCWN-labeled Let-7 probe (lane 1), 0.5 uM Lin28A ZKD protein with 10 nM of labeled Let-7 probe (lane 2), or Lin28A ZKD, labeled Let-7 probe and 100× non-labeled competitor probe (lane 3). EMSA used Lin28A ZKD, labeled Let-7 probe, and 100–1200 uM of indicated compounds (lanes 4–10). (B) FP assays were performed by using 10 uM of Lin28A ZKD, 1 nM of FAM-labeled Let-7 probe, and 1 nM–200 uM of compounds. (C) Lin28A-positive IGROV1 cells were treated with 20 uM of the indicated compound for 48 h. Real-time qPCR measured RNA levels of Let-7d, SOX2, and HMGA2. Three biological replicates were performed and all results are presented as mean +/− SD. p-value ≤ 0.05—(*); ≤0.01—(**); ≤0.001—(***).

IGROV1 cells = assay: Real-time qPCR of Let-7d, SOX2, HMGA2 in IGROV1 cells; assay type: cell-based; details: IGROV1 cells (Lin28A-positive), 20 uM, 48 h
Protocol: The DUNE cell line and DUNE cells with Lin28B knockout by CRISPR (DUNE (KO)) were reported in our previous studies. IGROV1 cells were obtained from Sigma-Aldrich (St. Louis, MO, USA). DUNE and DUNE (KO) cells were cultured in Dulbecco’s Modified Eagle Medium with high Glucose/L-glutamine (DMEM; Hyclone, Logan, UT, USA) and 10% of fetal bovine serum (FBS; Gibico, Waltham, MA, USA). IGROV1 cells were cultured in Roswell Park Memorial Institute 1640 (RPMI-1640; Hyclone) medium with 10% FBS. All the cell lines were incubated in 5% CO2 at 37 °C and were tested for mycoplasma contamination monthly and cell line authentication was tested by short tandem repeat profiling by ATCC.
(§3) There are several standard molecular techniques, including real-time qPCR, flow cytometry, cell proliferation, colony formation, and immunoblotting assays, that have been reported previously by our lab.
as §2

DUNE cells [1] = assay: Real-time qPCR of CSC and neuroendocrine biomarkers in DUNE cells; assay type: cell-based; details: 20 uM, 48 h
Protocol: as §3
Figure 6 Lin28 inhibitors block the expression of NE and CSC biomarkers. DUNE cells were treated with 20 uM of the indicated compound for 48 h. Real-time qPCR measured RNA levels of neuroendocrine (A) and CSC (B) biomarkers. Three biological replicates were performed and all results are presented as mean +/− SD. p-value ≤ 0.05—(*); ≤0.01—(**); ≤0.001—(***).

DUNE cells [2] = assay: FACS analysis of CD44 and CD133 positive cell populations; assay type: cell-based; details: 20 uM, 48 h; for % of CD133+ cells: paired vehicle 60.8–65.4; for % CD44+ cells: paired vehicle 84.7–94.9
Protocol: as §3
Figure 7 Lin28 inhibitors block CSC phenotypes of cancer cells. (A) FACS analysis using CD44 and CD133 antibodies detected CSC cell populations from DUNE or DUNE (KO) cells treated with either vehicle or 20 uM of Ln7, Ln15, and Ln115 for 48 h. (B) DUNE, DUNE (KO), and IGROV1 cell proliferation were measured in the presence of 20 uM of Ln7, Ln15, and Ln115. (C) Colony formation assays (colonies >[…] were counted) measured the suppressive effects of Ln7, Ln15, and Ln115 at the concentration of 20 uM. p-value ≤ 0.01—(**); ≤0.001—(***).

Row | inhibition of ZKD–Let-7 complex in EMSA (Lin28B ZKD) | concentration that inhibits formation of Lin28A ZKD–Let-7 complex in EMSA (Lin28A ZKD) [µM] | concentration that disrupts ZKD–Let-7 complex in EMSA (Lin28B ZKD) [µM] | SMILES | Let-7 microRNA levels (IGROV1 cells) | expression of CSC markers (IGF2BP1, CDH2, FOXD3, HEY1, ALDH1A2, CDK6, FOXC1, SIX2, ID4) (DUNE cells [1]) | expression of neuroendocrine markers (ASCL1, CHGB, SCGN, SYP, STT4) (DUNE cells [1]) | CD44- and CD133-positive cell populations (DUNE cells [2]) | % of CD133+ cells (DUNE cells [2]) [%] | % CD44+ cells (DUNE cells [2]) [%] | upregulation of Let-7 (IGROV1 cells) [fold] | suppression of CDH2 expression (DUNE cells [1]) | suppression of FOXD3 expression (DUNE cells [1])
1 | robust inhibition | 100 to 400 |  | CCOc1cccc2c1N[C@@H](c1ccc(C(=O)O)cc1)[C@H]1CC=C[C@@H]21 [Li71, reference compound] | upregulated | variable mild inhibitory effects or no inhibition |  |  |  |  |  |  | 
2 |  | > 1200 | > 1000 | CCc1cc(=O)[nH]c(Nc2cc(Cl)ccc2O)n1 [Ln7] |  | reductions | blocked | significant reductions | 37.1 ± 4.2 | 61.6 ± 3.2 |  |  | 
3 |  | 100 to 400 | 400 | O=c1[nH]c(Nc2ccccc2O)cs1 [Ln15] |  | reductions | blocked | significant reductions | 14.7 ± 2.1 | 70.1 ± 4.6 | 10 |  | 
4 |  | 100 to 400 |  | O=c1cccc(-c2nc3cc(F)c(O)cc3c(=O)[nH]2)[nH]1 [Ln115] |  | reductions | blocked | significant reductions | 30 ± 4.5 | 54.3 ± 6.0 |  | up to 90% | up to 90%
5 |  | > 1200 |  | CC(=O)N(C)c1cccc(-c2ccc3nnc(C)n3n2)c1 [compound 1632, reference compound] | upregulated | variable mild inhibitory effects or no inhibition |  |  |  |  |  |  | 
